{"source": "patent US5744499A", "about": "“Apoptosis-modulating factors influencing the intracellular concentration of methional/malondialdehyde” (Centre International de Recherches Dermatologiques Galderma, priority 1994, dated 1998)", "key": {"[1]": {"system": "HeLa cells", "assay": "Effect of metabolites on the growth of HeLa cells", "format": "cell-based", "conditions": "Homo sapiens, 72 h, three days at 37° C., estimated by protein content, average of 3 or 4 experiments, read-out: IC50 (concentration required to inhibit cell growth by 50%)", "experimental": "HeLa cells (0.5×10^6 per Petri dish) were cultured in 3 ml of a minimum essential Eagle medium containing 10% by weight dialyzed fetal calf serum. After four hours, methional (10 μM-1 mM), methionol (10 μM-20 mM), methylthiopropionic acid (MTPA) (1 μM-20 mM), L-methionine (1 μM-20 mM) or 4-methylthio-2-oxobutanoic acid (MTOB) (1 μM-20 mM) were added to each of the three dishes. After three days at 37° C., the cells were washed twice in a buffered, phosphatized saline medium having a pH of 7.5 (PBS medium) and collected in the same type of buffer.\nCell growth was assessed by measuring protein content (see technique described in O. H. Lowry, N. J. Rosebrouh, A. L. Farr, and R. J. Randall, J. Biol. Chem., 193, 265-275 (1951)) or the DNA content in the lysate using a bisbenzimide trihydrochloride solution (Hoechst 33258) (see W. D. Jarvis, R. N. Kolesnick, F. A. Fornari, R. S. Traylor, D. A. Gewirtz, and S. Grant, Proc. Natl. Acad. Sci. USA, 91, 73-77 (1994)), or by determining […] using 3-(4,5-dimethylthiazol-2-yl)-2,5-diphenyl-tetrazolium bromide (MTT) (see T. Mosmann, J. of Immunology, Methods, 65, 55-63 (1983)).\nEach value of is the average of 3 or 4 experiments as estimated by protein content.\nIC50 represents the concentration of compound required to inhibit cell growth by 50%."}, "[2]": {"system": "BAF3 cells", "assay": "DNA fragmentation in BAF3 cells, agarose gel electrophoresis", "format": "cell-based, mouse", "conditions": "200-800 μM, medium with IL3, 8 hours", "experimental": "K. L. Collins, J. Marvel, […] A. Lopez-[…]. Exp. Med., 176, 1043-1051 (1992)]. […] After 8 hours of contact, the cells were washed three times in a phosphatized buffered saline medium, pH=7.5 (PBS medium). […] The supernatants were decanted and analyzed as indicated below. For purposes of comparison, the same cultures were grown in a medium, either with IL3 (+IL3) or without IL3 (-IL3). The DNA fragments obtained were analyzed qualitatively using the method described, in particular, in W. D. Jarvis, […], and S. Grant, Proc. Natl. Acad. Sci. USA, 91, 73-77 (1994). The supernatants were treated with ribonuclease A (20 μg/ml) for 1 hour at 37° C., and with the proteinase R (100 μg/ml). The DNA was purified using phenol extraction and precipitated with ethanol. […] After electrophoresis (60V, 3 hours), the gels were stained with ethydium bromide."}, "[3]": {"system": "BAF3 cells", "assay": "DNA fragmentation in BAF3 cells, spectrofluorometric analysis (Hoechst 33258)", "format": "cell-based, mouse", "experimental": "3×10^6 BAF3 cells were grown in 6 ml of a culture medium containing IL3 in Petri dishes in the presence of different concentrations (200-800 μM) of methional or […], a substrate of the aldehyde dehydogenase. After 8 hours of contact, the cells were washed three times in a phosphatized buffered saline medium, pH=7.5 (PBS medium). These cells were lysed in 2 ml 0.1% Triton X-100, 20 mM EDTA (ethylenediaminetetraacetic acid), 5 mM Tris pH 8, and then centrifuged at 30,000 g at 4° C. for 30 minutes. The supernatants were decanted and analyzed as indicated below.\nFor purposes of comparison, the same cultures were grown in a medium, either with IL3 (+IL3) or without IL3 (-IL3).\nSpectrofluorometric analysis was carried out to measure the […] of DNA fragments obtained (<3 kilobases). 1 ml of a solution of bisbenzimide trihydrochloride (Hoechst 33258) (1 μg/ml) in 3 mM sodium chloride, 1 mMd4EDTA, 10 mM Tris, pH=8, was added to 2 ml supernatant. The solutions obtained were analyzed by fluorometry (excitation λ=365 nm, emission λ=460 nm). The quantities of DNA were calculated in relation to highly-purified DNA (0.1 to 1 μh in 2 ml lysis buffer) treated as indicated above and expressed in 10^-9 g DNA collected from 3×10^6 cells."}, "[4]": {"system": "murine B16 Fl melanoma cells", "assay": "Survival of mice grafted with B16 melanoma cells", "format": "in vivo, mouse", "conditions": "Table 5; three mice; daily injection for 15 days; BCNU 0.1 mg/kg, Compound A 25 mg/kg, Methional 25 mg/kg; control 20.5", "experimental": "At t=0 day, 10^5 murine B16 Fl melanoma cells were injected into B6D2Fl mice (from the IFFA CREDO Company, France).\nTable 5 reports the results corresponding to averages of the results obtained on three treated mice.\nFor the regimens containing multiple compounds, the quantities of each of the compounds used were identical to those of the regimens using the compounds by themselves.\nSurvival time was recorded beginning at t=0 day, as indicated above.\nBCNU corresponds to N,N-Bis(2-chloroethyl)-N-nitrosourea. Compound A corresponds to the compound having formula (9), wherein X is a --OH radical.\nBetween the two regimens, the latter (to which methional was added) accounted for one-third of the mice surviving more than 60 days. The \"average survival time\" is the mean of the number of mice dying over the course of the experiment, i.e., within 60 days.\nThe procedure of the previous example was repeated, but the regimens and numbers of mice treated varied.\nWith respect to this latter regiment, the quantities corresponded to the quantities of compounds used alone. The percentage of long-term survivors corresponded to the percentage of mice which survived beyond 60 days."}, "[5]": {"system": "BAF3-bO cells", "assay": "Induction of DNA fragmentation by methional in BAF3-bO cells ([3H]-thymidine)", "format": "cell-based, mouse", "conditions": "400 μM methional, 8 hours; control 7%", "experimental": "(§1) The cells used were a BAF3 lymphocytic cell line, such as that described above. The BAF3-bcl2 cells corresponded to BAF3 cells transfected by the bcl2 gene. The BAF3-bO cells corresponded to BAF3 cells not transfected by the bcl2 gene. As indicated above, the BAF3-bO cells underwent apoptosis (more than 80% of the cells) in the absence of IL3 for 16 hours. On the other hand, the BAF3-bcl2 cells, which were transfected by the bcl2 gene, evidenced no sign of apoptosis in the absence of IL3. Accordingly, they constituted a good model for determining the apoptosis step blocked in these cells, and its potential correlation with the inhibition of malondialdehyde synthesis.\n(§2) The BAF3-bO or BAF3-bcl2 cells were marked by adaptation of the method described in S. Wright et al, J. of Cell. Biochem., 48, 344-355 (1992), by incubating 2.5×10^5 cells/ml with 0.5 μCi [3H]-thymidine for 40 hours at 37° C. After two washings in a culture medium, 2.5×10^6 cells were cultured in the presence of methional. […] The aliquots of the culture medium (1 ml), of the supernatant (0.3 ml), and of the solubilized sediment (0.1 ml) were measured by quantitative analysis in the scintillation counter. The percentage of DNA fragments was calculated in the following manner: […]"}, "[6]": {"system": "BAF3-bcl2 cells", "assay": "Induction of DNA fragmentation by methional in BAF3-bcl2 cells ([3H]-thymidine)", "format": "cell-based, mouse", "experimental": "as §1, §2"}}}
{"smiles": "CSCCC=O", "note": "[methional, 3-methylthiopropanal]", "values": [{"measurement": "IC50", "setting": "[1]", "value": 100, "unit": "µM"}, {"measurement": "triggering of apoptosis (ladder of DNA fragments of 180 to 200 base pairs on gel)", "setting": "[2]", "value": "apoptosis was triggered"}, {"measurement": "quantity of DNA fragments (<3 kilobases)", "setting": "[3]; +IL3, 8 hours contact, methional 200-800 μM (concentration not given)", "value": "127 10^-9 g DNA/3 × 10^6 cells"}, {"measurement": "increase in amount of DNA fragments compared with cells without IL3", "setting": "[3]; cells treated with IL3 and methional", "value": "comparable to the quantity found when the cells were placed in a medium not containing IL3"}, {"measurement": "Average Survival Time", "setting": "[4]", "value": 27, "unit": "days"}, {"measurement": "percentage of DNA fragments (maximum)", "setting": "[5]", "value": 26, "unit": "%"}, {"measurement": "percentage of DNA fragments (maximum)", "setting": "[6]; 400 μM methional, 8 hours, control 3%", "value": 7, "unit": "%"}, {"measurement": "elimination of the bcl2 inhibition of apoptosis", "setting": "[6]; methional 50-400 μM", "value": "did not permit eliminating the inhibition of apoptosis resulting from the bcl2 gene"}]}
